Data: patent US20230012570A1, “BICYCLIC COMPOUND USED AS SELECTIVE ANDROGEN RECEPTOR MODULATOR” (MEDSHINE DISCOVERY INC., priority 2019, published 2023)
Where two headings read alike, the source gives them in different places.

Assays:
androgen receptor (AR) = target: T1, androgen receptor (AR) (Homo sapiens, UniProt P10275); test: Agonistic effect of test compounds on androgen receptor (AR), LiveBLAzer FRET reporter cell assay; type: cell-based
T1 sequence (P10275 1-920): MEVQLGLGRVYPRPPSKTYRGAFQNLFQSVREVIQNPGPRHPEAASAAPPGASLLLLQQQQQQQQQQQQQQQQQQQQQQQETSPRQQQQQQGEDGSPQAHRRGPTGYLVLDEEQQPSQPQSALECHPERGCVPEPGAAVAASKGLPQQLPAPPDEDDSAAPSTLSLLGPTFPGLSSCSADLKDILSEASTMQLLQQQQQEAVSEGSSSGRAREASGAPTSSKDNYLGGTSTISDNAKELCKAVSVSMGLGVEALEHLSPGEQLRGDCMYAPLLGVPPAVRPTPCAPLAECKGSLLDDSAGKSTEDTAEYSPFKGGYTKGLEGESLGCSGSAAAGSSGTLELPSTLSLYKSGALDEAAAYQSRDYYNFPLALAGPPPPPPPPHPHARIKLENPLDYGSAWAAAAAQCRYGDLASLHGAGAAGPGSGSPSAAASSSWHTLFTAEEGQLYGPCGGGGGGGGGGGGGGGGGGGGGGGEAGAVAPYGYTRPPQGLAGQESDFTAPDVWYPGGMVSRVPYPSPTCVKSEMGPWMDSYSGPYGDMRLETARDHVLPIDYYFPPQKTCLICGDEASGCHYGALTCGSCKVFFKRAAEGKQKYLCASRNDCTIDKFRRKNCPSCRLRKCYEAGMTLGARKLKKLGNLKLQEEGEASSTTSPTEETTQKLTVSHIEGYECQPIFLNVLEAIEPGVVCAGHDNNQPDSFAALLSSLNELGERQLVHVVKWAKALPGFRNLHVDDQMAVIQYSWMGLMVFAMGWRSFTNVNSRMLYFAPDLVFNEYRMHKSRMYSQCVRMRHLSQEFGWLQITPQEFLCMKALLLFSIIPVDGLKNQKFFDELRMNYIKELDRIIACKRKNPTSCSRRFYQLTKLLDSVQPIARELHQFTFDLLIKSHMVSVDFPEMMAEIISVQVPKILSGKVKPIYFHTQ
Protocol: Experimental Embodiment 1: Agonistic Effect of Test Compounds on Androgen Receptor (AR)
1. Preparation of Compounds, Placing in Plates:
1.1 Preparation of compounds: the test compounds were diluted to the working concentration, and each compound was diluted by 4 times with Echo for 10 concentration gradients, and the compounds were added to a 384-well cell plate according to the microplate layout diagram, with 200 nL per well;
1.2 AR cell assay medium: 87% Opti-MEM (reduced serum medium), 10% Dialyzed FBS (dialyzed fetal bovine serum), 1% NEAA (non-essential amino acids), 1% sodium pyruvate and 1% penicillin-streptomycin;
1.3 culture medium, trypsin and Dulbecco's phosphate buffer were preheated in a 37° C. water bath;
1.4 the original medium in the cell culture flask was removed, and the cells were washed once with 6 mL of Dulbecco's phosphate buffer;
1.5 3.5 mL of trypsin was added to the cell culture flask, and the flask was gently shaken to make the trypsin fully contact with the cells, the trypsin was removed; after aspirating the trypsin, the culture flask was placed in a 37° C. incubator containing 5% CO2 for about 1 minute;
1.6 the cells were resuspended with 10 mL of cell detection medium, and about 0.8 mL of cell suspension was taken out for counting (ViCell XR)
1.7 the cell suspension was diluted with culture medium to 2.5×10^5 cells per mL;
1.8 40 !IL of cell suspension was added to each well of the cell plate, and 40 μL of cell culture medium was added to the other wells, and the cells were incubated in a 37° C. incubator containing 5% CO2 for 16 hours.
2. Reading the Board and Analyzing Data:
2.1 Preparation of solution A: 182 μL of DMSO was added to 200 μg of LiveBLAzer™-FRET B/G/g substrate (CCF4-AM). The solution A was packaged and stored in a refrigerator at −20° C.;
2.2 preparation of 6×substrate buffer: 15 μL of solution A was added to 150 μL of solution B, and the mixture was vortexed evenly, then 2335 μL of solution C was added to the above solution and vortexed evenly;
2.3 the cell culture plate was taken out, and 8μL of 6×substrate buffer was added to each well, shaken for 1 minute, and centrifuged at 1000 rpm for 10 seconds; after sealing the membrane, the cells were incubated at 23° C. for 2 hours, and the plate was read with Envision, and the curve EC50 value was fitted by Prism software.

[1] = Pharmacokinetic test in male SD rats, intravenous and intragastric administration, plasma LC-MS/MS; type: in vivo; conditions: rat; for Vd: read-out: Apparent volume of distribution Vdss; for clearance: read-out: Clearance rate Cl; for AUC(0-inf): read-out: Curve area (0-inf) AUC0-inf; for AUC(0-t): read-out: Curve area (0-t) AUC0-last; for half-life: read-out: Half-life T1/2 (converted); for bioavailability: oral, intragastric vs intravenous administration, read-out: Bioavailability F; for Cmax: read-out: Blood drug concentration Cmax; for Tmax: read-out: Peak time Tmax
Description: Experimental Embodiment 2: Pharmacokinetic Test of the Compounds of the Present Disclosure
Male SD rats were used as test animals, and LC-MS/MS method was used to determine the drug concentrations in plasma of rats at different time after intravenous and intragastric administration of compound 1A, compound 3A and compound 8A. To study the pharmacokinetic behavior of the compounds in rats and to evaluate their pharmacokinetic characteristics.
2.1 Test Drugs: Compound 1A, Compound 3A and Compound 8A
2.2 Test animals: 12 healthy adult male SD rats, divided into 6 groups with 2 rats in each group. The animal was purchased from Shanghai Sippr-BK laboratory animal Co. Ltd., and the animal production license number was SOCK (Shanghai) 2013-0016.
An appropriate amount of sample was weighed, and appropriate amounts of DMSO, polyethylene glycol-15 hydroxystearate and water were added in turn according to the volume ratio of 10:10:80, and the clarified state of 0.2 mg/mL was reached after stirring and sonication for intravenous administration.
An appropriate amount of sample was weighed and dissolved in 5% Tween 80+90% polyethylene glycol 400+5% polyvinylpyrrolidone K30 solution, and the clarified state of 0.5 mg/mL was reached after stirring and sonication for intragastric administration.
12 male SD rats were divided into 6 groups, and after fasting overnight, groups 1-3 were administered intravenously with a volume of 5 mL/kg; groups 4-6 were administered by gavage with a volume of 10 mL/kg.
After compound 1A, compound 3A and compound 8A were intravenously administered to SD rats, 40 μL of blood was collected at 0.0833, 0.25, 0.5, 1, 2, 4, 8 and 24 hours, respectively, and placed in a test tube containing 2 μL of EDTA-K2. After compound 1A and compound 3A were administered by gavage, 40 μL of blood was collected at 0.25, 0.5, 1, 2, 4, 8 and 24 hours, respectively, and placed in a test tube containing 2 μL of EDTA-K2. The tubes were centrifuged at 4000 rpm for 15 minutes to separate the plasma and stored at −60° C. Animals were allowed to eat 2 hours after administration.
The content of the test compounds in the plasma of rats after intravenous and intragastric administration was determined by LC-MS/MS method. The linear range of the method was 2.00-6000 nmol/L; plasma samples were analyzed after acetonitrile precipitation protein treatment.

[2] = AR cells, 16 hours incubation, 10 concentrations, read-out: EC50, agonist activity on androgen receptor
[3] = intravenous administration, dose 1.1 (1A), 0.69 (3A), 0.716 (8A) mg/kg
[4] = po, intragastric administration, dose 4.92 (1A), 4.2 (3A), 4.59 (8A) mg/kg

N#Cc1ncc(N2CC3CC3C2C(O)C(F)(F)F)cc1OC(F)F (single isomer, unassigned) [Compound 9A]
EC50 (androgen receptor (AR); [2]): 47.8 nM

N#Cc1ncc(N2CC3CC3C2C(O)C(F)(F)F)cc1C(F)(F)F (single isomer, unassigned) [Compound 8A]
EC50 (androgen receptor (AR); [2]): 3.25 nM
Vd [1, 3]: 2.22 L/kg
clearance [1, 3]: 6.99 mL/min/kg
AUC(0-inf) [1, 3]: 4.87 µM·h
AUC(0-t) [1, 3]: 4.78 µM·h
half-life [1, 3]: 251 min
bioavailability [1]: 41%
Cmax [1, 4]: 1660 nM
AUC(0-inf) [1, 4]: 12.9 µM·h
AUC(0-t) [1, 4]: 12.7 µM·h
half-life [1, 4]: 221 min
Tmax [1, 4]: 4 h

N#Cc1cc(N2CC3CC3C2C(O)C(F)(F)F)cc(F)c1C#N (stereo not shown) [Mixture of compounds 6A and 6B]
EC50 (androgen receptor (AR); [2]): 4.3 nM

N#Cc1c(F)cc(N2CC3CC3C2C(O)C(F)(F)F)cc1C(F)(F)F (single isomer, unassigned) [Compound 7A]
EC50 (androgen receptor (AR)): 0.53 nM

N#Cc1ncc(N2CC3C(C2C(O)C(F)(F)F)C3(F)F)cc1C(F)(F)F (stereo not shown) [Mixture of compounds 12A and 12B]
EC50 (androgen receptor (AR); [2]): 6.33 nM

N#Cc1c(F)cc(N2CC3CC3C2C(O)C(F)(F)F)cc1Cl (single isomer, unassigned) [Compound 5A]
EC50 (androgen receptor (AR)): 0.37 nM

COc1cc(N2CC3CC3C2C(O)C(F)(F)F)cnc1C#N (single isomer, unassigned) [Compound 11A]
EC50 (androgen receptor (AR); [2]): 135 nM

N#Cc1ccc(N2C[C@@H]3COC[C@@H]3[C@H]2C(O)C(F)(F)F)cc1C(F)(F)F (single isomer, unassigned) [Compound 14A]
EC50 (androgen receptor (AR)): 0.39 nM

N#Cc1ncc(N2CC3CC3C2C(O)C(F)(F)F)cc1Cl (single isomer, unassigned) [Compound 10A]
EC50 (androgen receptor (AR); [2]): 55.8 nM

N#Cc1ccc(N2CC3CC3C2C(O)C(F)(F)F)cc1C(F)F (stereo not shown) [Mixture of compounds 2A and 2B]
EC50 (androgen receptor (AR)): 8.8 nM

N#Cc1ccc(N2CC3CC3C2C(O)C(F)(F)F)cc1C(F)(F)F (single isomer, unassigned) [Compound 1A]
EC50 (androgen receptor (AR)): 0.81 nM
Vd [1, 3]: 1.43 L/kg
clearance [1, 3]: 20.6 mL/min/kg
AUC(0-inf) [1, 3]: 2.5 µM·h
AUC(0-t) [1, 3]: 2.47 µM·h
half-life [1, 3]: 82.2 min
bioavailability [1]: 11%
Cmax [1, 4]: 223 nM
AUC(0-t) [1, 4]: 1.24 µM·h
Tmax [1, 4]: 4 h
